Tests used:
CD4+ T-cells = assay: I-MUNE T-cell proliferation assay (dendritic cells + autologous CD4+ T-cells + 15-mer peptides, tritiated thymidine); assay type: cell-based, human; parameters: key to epitope designation: major: response rate within the tested donor pool is at least three standard deviations above the mean background response rate; moderate: response rate within the tested donor pool is at least two standard deviations above the mean or three times the background; minor: response rate within the tested donor pool is at least twice the background; details: 83 donors; for structure value: 15-mer peptide sets, 5 μg/ml, positive response SI >= 2.95, analysis method (QC/non-QC) not stated at place
Excerpt: Full length amino acid sequences of human BMP-7 (GenBank Accession No. P18075) and BMP-14 (GenBank Accession No. P43026) precursor proteins were used to create 15-mer peptide sets. These variant peptides were synthesized by Mimotopes, using the multi-pin synthesis technique known in the art (See e.g., Maeji et al., J. Immunol. Meth., 134:23-33 [1990]). The 15-mer peptides were created such that sequences with adjacent peptides shared 12 amino acids (i.e., each peptide was offset by three amino acids). Peptides were diluted with DMSO to provide a stock concentration of approximately 2 mg/ml. The final concentration of peptides used in each assay was 5 μg/ml.
Fresh human peripheral blood cells were collected from 83 community donors. These cells were tested to determine antigenic epitopes in BMP-7 and BMP-14, as described in Example 3, below.
Peripheral mononuclear blood cells (PBMCs) (stored at room temperature, no older than 24 hours) were prepared for use as follows. PBMCs were isolated from buffy coat material by centrifuging over an underlay of LYMPHOPREP™ at 1000×g for 30 minutes. The interface layer was collected and washed and counted using the CELL-DYN® 3700 System (Abbott). Then, suspensions containing 10^8 PBMCs resuspended in 30 ml of AIM-V (Invitrogen) were prepared and the cells were allowed to adhere to plastic T-75 culture flasks for two hours. The remainder of the cells were frozen at 5×10^7 cells/ml in 90% FCS (Gibco/BRL) and 10% DMSO (Sigma).
After the two hour PBMC incubation period, non-adherent cells were removed from the culture flasks. The adherent cells were cultured in the flasks with 800 units/ml recombinant human GM-CSF (Endogen) and 100 units/ml recombinant human IL4 (Endogen) at 37° C., 5% CO2. On day 5 of incubation, 50 units/ml recombinant human Il-1α (Endogen) and 0.2 units/ml recombinant human TNF-α were added to the cultures. Adherent and non-adherent dendritic cells were harvested, washed, and counted on day 7, following a one-hour treatment with […] mitomycin C (Sigma) and 10 mM EDTA.
Autologous CD4+ T-cells were prepared from frozen aliquots of PBMCs. After thawing and washing in DPBS, CD4+ T-cells were isolated using a commercially available CD4 negative selection kit (Dynal), according to the manufacturer's instructions. Cells were counted using the Abbott CELL-DYN® 3700 System. The purity obtained using these methods was generally found to be greater than 90%.
This Example describes the assay system used in the present invention. This test system is also referred to as the “I-MUNE®” assay system. In 96-well, round bottom plates, autologous dendritic cells and CD4+ T-cells were combined with test peptides. More specifically, in a volume of 100 μl/well, 2×10^4 dendritic cells in AIM V were combined with individual peptides (at a final peptide concentration of 5 μg/ml and a final DMSO concentration of 0.25%). After a one-hour incubation at 37° C., 5% CO2, 2×10^5 CD4+ T-cells were added to the culture for a total volume of 200 μl. Negative control wells contained dendritic cells, CD4+ T-cells and 0.25% DMSO. Positive control wells contained dendritic cells, CD4+ T-cells (at the same concentrations as the test wells) and 0.25% DMSO with 0.4 μg/ml tetanus toxoid (List). Individual peptides were tested in duplicate for each donor.
After 5 days of incubation at 37° C., 5% CO2, the cultures were pulsed with 0.25 μCi/well tritiated thymidine (Perkin Elmer). After a subsequent 24 hours of incubation, plates were harvested and assessed for incorporation of the tritiated thymidine (i.e., T-cell proliferation) using a Wallac MICROBETA® TriLux liquid scintillation counter (Perkin Elmer).
For each individual buffy coat sample, the average CPM values for all of the peptides were analyzed. The average CPM values for each peptide were divided by the average CPM value for the control (DMSO only) wells to determine the “stimulation index” (SI). […]

[1] = system: HLA Class II antigens at DRB1 and DQB1; assay: HLA associations of proliferative responses to epitope peptides; assay type: cell-based, human; details: for relative risk (RR): 83 donors
Experimental: In addition to the above analyses, the HLA associations with BMP-7 and BMP-14 epitope peptides were determined. In these experiments, the proliferative response data to five epitope peptides (#3, #7, #8, #16 and #31) were tested in 83 donors for which the expression of HLA Class II antigens at DRB1 and DQB1 was also tested. For four of the peptides, the reaction was assessed by two methods (i.e., “QC” and “non-QC,” “[nQC”] as described above). The statistically significant associations found by both methods were as follows. For epitope #3 and DR11, the relative risk (RR) was 6.25; p<0.0005 [QC], RR=4.17 p<0.005 [nQC]. For epitope #3 and DQ2, the RR was 0.17 p<0.04 [QC], RR=0.13 p<0.01 [nQC]. For epitope #3 and DQ9, the RR was 6.67 p<0.003 [QC]; RR=4.85 p<0.013 [nQC]. For epitope #8 and DR11, the RR was 6.6 p<0.0003. For epitope #31 and DR7, the RR was 8.32 p<0.001 [QC]; RR=4.44 p<0.002 [nQC].
In addition the average stimulation index (SI) was higher among DR11+ than among DR11− donors for peptide #3 (QC) (5.8 fold, p<0.0004) and peptide #8 (2.3 fold p<0.007). Also the average SI was higher among DR7+ than among DR7− donors for peptide #31 (QC) (2.7 fold p<0.0007).

[2] = patients treated for spinal problems; cited from earlier work

Question: With “SHLEPTNHAVIQTLM (BMP-14 epitope) [Peptide 20]” as the molecule, how does the epitope designation (CD4+ T-cells) read?
Answer: minor

Question: What about the “statistical significance of peptide response (Poisson, cut-off p<0.05)” value (CD4+ T-cells; QC method) of the same molecule?
Answer: did not reach the p<0.05 cut-off

Question: With “SPISILFIDSANNVV (BMP-14 epitope) [Peptide 31]” as the molecule, how does the “relative risk (RR)” value ([1]; DR7, QC, p<0.001) read?
Answer: 8.32

Question: What about the “relative risk (RR)” value ([1]; DR7, nQC, p<0.002) of the same molecule?
Answer: 4.44

Question: And the “average SI higher among DR7+ than among DR7− donors” value ([1]; QC, p<0.0007)?
Answer: 2.7 fold

Question: For “PLRSHLEPTNHAVIQ (BMP-14 epitope) [Peptide 19]”, which epitope designation (CD4+ T-cells) is on record?
Answer: minor

Question: And the “statistical significance of peptide response (Poisson, cut-off p<0.05)” value (CD4+ T-cells; QC method)?
Answer: did not reach the p<0.05 cut-off

Question: For “SNVILKKYRNMVVRA (BMP-7 epitope) [Peptide 41]”, which epitope designation (CD4+ T-cells) is on record?
Answer: minor

Question: What about the “statistical significance of peptide response (Poisson, cut-off p<0.05)” value (CD4+ T-cells; QC method) of the same molecule?
Answer: did not reach the p<0.05 cut-off

Question: Which results are given for “RSQNRSKTPKNQEAL (BMP-7 epitope) [Peptide 3]”?
Answer: relative risk (RR) ([1]; DQ2, QC, p<0.04): 0.17; relative risk (RR) ([1]; DQ2, nQC, p<0.01): 0.13; relative risk (RR) ([1]; DQ9, QC, p<0.003): 6.67; relative risk (RR) ([1]; DQ9, nQC, p<0.013): 4.85; relative risk (RR) ([1]; DR11, QC, p<0.0005): 6.25; relative risk (RR) ([1]; DR11, nQC, p<0.005): 4.17; average stimulation index (SI) higher among DR11+ than among DR11− donors ([1]; QC, p<0.0004): 5.8 fold

Question: Which “relative risk (RR)” value ([1]; DR11, method not stated, p<0.0003) does the source give for “RMANVAENSSSDQRQ (BMP-7 epitope) [Peptide 8]” here?
Answer: 6.6

Question: And the “average stimulation index (SI) higher among DR11+ than among DR11− donors” value ([1]; method not stated, p<0.007)?
Answer: 2.3 fold

B1: BMP-14: human BMP-14 (GenBank Accession No. P43026), tested as 15-mer peptide set (protein, UniProt P43026 382-501, looked up)
Growth/differentiation factor …: APLATRQGKRPSKNLKARCSRKALHVNFKDMGWDDWIIAPLEYEAFHCEGLCEFPLRSHLEPTNHAVIQTLMNSMDPESTPPTCCVPTRLSPISILFIDSANNVVYKQYEDMVVESCGCR
modifications: tested as overlapping 15-mer peptides
Question: For B1, which structure value (CD4+ T-cells) is on record?
Answer: 0.57

B2: BMP-7: human BMP-7 (GenBank Accession No. P18075), tested as 15-mer peptide set (protein, UniProt P18075 293-431, looked up)
Bone morphogenetic protein 7: STGSKQRSQNRSKTPKNQEALRMANVAENSSSDQRQACKKHELYVSFRDLGWQDWIIAPEGYAAYYCEGECAFPLNSYMNATNHAIVQTLVHFINPETVPKPCCAPTQLNAISVLYFDDSSNVILKKYRNMVVRACGCH
modifications: tested as overlapping 15-mer peptides
Question: What does the source list for B2?
Answer: structure value (CD4+ T-cells): 0.70; relative immunogenicity by structure values (CD4+ T-cells; QC method): more immunogenic than BMP-14; relative immunogenicity (CD4+ T-cells; non-QC method): more immunogenic than the BMP-14 protein; treated patients who developed detectable anti-BMP antibodies [2]: 38%
